For the test, the target named is T1, full-length beta-Catenin (Uniprot ID P35222) (Homo sapiens, UniProt P35222).
T1 construct: 10 nM full-length beta-Catenin (Uniprot ID P35222)
T1 sequence (P35222 1-781): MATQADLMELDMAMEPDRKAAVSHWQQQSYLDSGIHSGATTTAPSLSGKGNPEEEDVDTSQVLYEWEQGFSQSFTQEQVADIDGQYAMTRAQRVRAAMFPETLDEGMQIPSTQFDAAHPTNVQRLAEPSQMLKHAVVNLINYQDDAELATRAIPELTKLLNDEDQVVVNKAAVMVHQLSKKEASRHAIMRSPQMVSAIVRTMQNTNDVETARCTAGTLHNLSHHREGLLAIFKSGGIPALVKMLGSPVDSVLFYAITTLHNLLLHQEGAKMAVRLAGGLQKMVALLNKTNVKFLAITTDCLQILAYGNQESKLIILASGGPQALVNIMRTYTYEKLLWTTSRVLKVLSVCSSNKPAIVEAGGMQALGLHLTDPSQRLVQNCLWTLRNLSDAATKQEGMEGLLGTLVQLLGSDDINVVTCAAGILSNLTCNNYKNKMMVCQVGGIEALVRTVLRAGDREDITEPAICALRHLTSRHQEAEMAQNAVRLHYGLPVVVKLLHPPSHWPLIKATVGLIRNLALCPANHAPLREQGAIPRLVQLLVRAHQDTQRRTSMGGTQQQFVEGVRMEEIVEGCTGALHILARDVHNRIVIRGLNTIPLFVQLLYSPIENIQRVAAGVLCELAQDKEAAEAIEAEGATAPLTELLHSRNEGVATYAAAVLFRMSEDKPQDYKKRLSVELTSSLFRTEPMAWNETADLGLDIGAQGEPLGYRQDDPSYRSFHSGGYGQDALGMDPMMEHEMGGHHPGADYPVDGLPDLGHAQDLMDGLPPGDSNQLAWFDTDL
Description: Fluorescence polarization IC50 (beta-catenin / 5FAM-TCF4 10-53 competition). Format: binding. As to conditions: fluorescence polarization; read-out: beta-Catenin FP IC50. In general terms: Polarisation of emitted light reports the rotation of a fluorescent probe.

Among the data in patent US20240116985A1, “STAPLED PEPTIDES AND METHODS THEREOF” (priority 2020, published 2024) are IC50 values, retold here.

As a reminder, the IC50 is the midpoint of a concentration-inhibition curve.

SMILES strings stand for the structures.

On to `CC(=O)N1CCC[C@]12CC=CCCCC1(CCCC=CCCCCCC[C@@](C)(C(=O)N[C@@H](Cc3ccsc3)C(=O)N[C@@H](Cc3csc4ccccc34)C(=O)N[C@@H](CCC(N)=O)C(N)=O)NC(=O)[C@H](CC(N)=O)NC(=O)[C@H](Cc3ccccc3)NC(=O)[C@H](C)NC(=O)[C@H](C)NC(=O)[C@H](CC(=O)O)NC(=O)[C@H](CC(=O)O)NC1=O)NC(=O)[C@H](CC(C)(C)C)NC(=O)[C@H](CC(=O)O)N(C)C2=O` (stereo partly drawn) [I-1165, Ac-PL3-NMeD-Npg-B5-Asp-Asp-Ala-Ala-Phe-Asn-S8-3Thi-BztA-Gln-NH2], for which the IC50 came to 722 nM.

Consider `CC(=O)N1CCC[C@]12CC=CCCCC1(CCCC=CCCCOC(=O)N3CC[C@@](C(=O)N[C@@H](Cc4ccsc4)C(=O)N[C@@H](Cc4csc5ccccc45)C(=O)N[C@@H](CCC(N)=O)C(N)=O)(C3)NC(=O)[C@H](CC(N)=O)NC(=O)[C@H](Cc3ccccc3)NC(=O)[C@H](C)NC(=O)[C@H](C)NC(=O)[C@H](CC(=O)O)NC(=O)[C@H](CC(C)C)NC1=O)NC(=O)[C@H](CC(C)(C)C)NC(=O)[C@H](CC(=O)O)NC2=O` (stereo partly drawn) [I-1212, Ac-PL3-Asp-Npg-B5-Leu-Asp-Ala-Ala-Phe-Asn-PyrS2-3Thi-BztA-Gln-NH2], for which the IC50 was 8660 nM.

As to `CC(=O)N1CCC[C@]12CC=CCCCC1(CCCC=CCCCOC(=O)N3CC[C@@](C(=O)N[C@@H](Cc4ccsc4)C(=O)N[C@@H](Cc4csc5ccccc45)C(=O)N[C@@H](CCC(N)=O)C(N)=O)(C3)NC(=O)[C@H](CC(N)=O)NC(=O)[C@H](Cc3ccccc3)NC(=O)[C@H](C)NC(=O)[C@H](C)NC(=O)[C@H](CC(=O)O)NC(=O)[C@H](CC(=O)O)NC1=O)NC(=O)[C@H](CC(C)(C)C)NC(=O)[C@H](CO)NC2=O` (stereo partly drawn) [I-1222, Ac-PL3-Ser-Npg-B5-Asp-Asp-Ala-Ala-Phe-Asn-PyrS2-3Thi-BztA-Gln-NH2], the IC50 was determined as 511 nM.

For `CC(=O)N1CCC[C@]12CC=CCCCC1(CCCC=CCCCOC(=O)N3CC[C@@](C(=O)N[C@@H](Cc4ccsc4)C(=O)N[C@@H](Cc4csc5ccccc45)C(=O)N[C@@H](CCC(N)=O)C(N)=O)(C3)NC(=O)[C@H](CC(C)C)NC(=O)[C@H](Cc3ccccc3)NC(=O)[C@H](C)NC(=O)[C@H](C)NC(=O)[C@H](CC(=O)O)NC(=O)[C@H](CC(=O)O)NC1=O)NC(=O)[C@H](CC(C)(C)C)NC(=O)[C@H](CO)NC2=O` (stereo partly drawn) [I-1223, Ac-PL3-Ser-Npg-B5-Asp-Asp-Ala-Ala-Phe-Leu-PyrS2-3Thi-BztA-Gln-NH2], the IC50 was 550 nM.

As for `CC(=O)N1CCC[C@]12CC=CCCCC1(CCCC=CCCCOC(=O)N3CC[C@@](C(=O)N[C@@H](Cc4ccsc4)C(=O)N[C@@H](Cc4csc5ccccc45)C(=O)N[C@@H](CCC(N)=O)C(N)=O)(C3)NC(=O)[C@H](CC(N)=O)NC(=O)[C@H](Cc3ccccc3)NC(=O)[C@H](C)NC(=O)[C@H](C)NC(=O)[C@H](CC(=O)O)NC(=O)[C@H](CC(=O)O)NC1=O)NC(=O)[C@H](CC(C)(C)C)NC(=O)[C@H](CCC(N)=O)NC2=O` (stereo partly drawn) [I-1224, Ac-PL3-Gln-Npg-B5-Asp-Asp-Ala-Ala-Phe-Asn-PyrS2-3Thi-BztA-Gln-NH2], the IC50 was 389 nM.

Turning to `CC(=O)N1CCC[C@]12CC=CCCCC1(CCCC=CCCCOC(=O)N3CC[C@@](C(=O)N[C@@H](Cc4ccsc4)C(=O)N[C@@H](Cc4csc5ccccc45)C(=O)N[C@@H](CCC(N)=O)C(N)=O)(C3)NC(=O)[C@H](CC(C)C)NC(=O)[C@H](Cc3ccccc3)NC(=O)[C@H](C)NC(=O)[C@H](C)NC(=O)[C@H](CC(=O)O)NC(=O)[C@H](CC(=O)O)NC1=O)NC(=O)[C@H](CC(C)(C)C)NC(=O)[C@H](CCC(N)=O)NC2=O` (stereo partly drawn) [I-1225, Ac-PL3-Gln-Npg-B5-Asp-Asp-Ala-Ala-Phe-Leu-PyrS2-3Thi-BztA-Gln-NH2], the IC50 was found to be 305 nM.

In the case of `CC(=O)N1CCC[C@]12CC=CCCCC1(CCCC=CCCCOC(=O)N3CC[C@@](C(=O)N[C@@H](Cc4ccsc4)C(=O)N[C@@H](Cc4csc5ccccc45)C(=O)N[C@@H](CCC(N)=O)C(N)=O)(C3)NC(=O)[C@H](CC(N)=O)NC(=O)[C@H](Cc3ccccc3)NC(=O)[C@H](C)NC(=O)[C@H](C)NC(=O)[C@H](CC(=O)O)NC(=O)[C@H](CC(=O)O)NC1=O)NC(=O)[C@H](CC(C)(C)C)NC(=O)[C@H](CC(C)C)NC2=O` (stereo partly drawn) [I-1226, Ac-PL3-Leu-Npg-B5-Asp-Asp-Ala-Ala-Phe-Asn-PyrS2-3Thi-BztA-Gln-NH2], the IC50 was determined as 559 nM.

Consider `CC(=O)N1CCC[C@]12CC=CCCCC1(CCCC=CCCCOC(=O)N3CC[C@@](C(=O)N[C@@H](Cc4ccsc4)C(=O)N[C@@H](Cc4csc5ccccc45)C(=O)N[C@@H](CCC(N)=O)C(N)=O)(C3)NC(=O)[C@H](CC(N)=O)NC(=O)[C@H](Cc3ccccc3)NC(=O)[C@H](C)NC(=O)[C@H](C)NC(=O)[C@H](CC(=O)O)NC(=O)[C@H](CC(=O)O)NC1=O)NC(=O)[C@H](CC(C)(C)C)NC(=O)[C@H](CCO)NC2=O` (stereo partly drawn) [I-1228, Ac-PL3-Hse-Npg-B5-Asp-Asp-Ala-Ala-Phe-Asn-PyrS2-3Thi-BztA-Gln-NH2], for which the IC50 stood at 100 nM.

In the case of `CC(=O)N1CCC[C@]12CC=CCCCC1(CCCC=CCCCOC(=O)N3CC[C@@](C(=O)N[C@@H](Cc4ccsc4)C(=O)N[C@@H](Cc4csc5ccccc45)C(=O)N[C@@H](CCC(N)=O)C(N)=O)(C3)NC(=O)[C@H](CC(C)C)NC(=O)[C@H](Cc3ccccc3)NC(=O)[C@H](C)NC(=O)[C@H](C)NC(=O)[C@H](CC(=O)O)NC(=O)[C@H](CC(=O)O)NC1=O)NC(=O)[C@H](CC(C)(C)C)NC(=O)[C@H](CCO)NC2=O` (stereo partly drawn) [I-1229, Ac-PL3-Hse-Npg-B5-Asp-Asp-Ala-Ala-Phe-Leu-PyrS2-3Thi-BztA-Gln-NH2], the IC50 is 134 nM.

Turning to `CC(=O)N1CCC[C@]12CC=CCCCC1(CCCC=CCCCOC(=O)N3CC[C@@](C(=O)N[C@@H](Cc4ccccc4Cl)C(=O)N[C@@H](Cc4csc5ccccc45)C(=O)N[C@H](CO)CC(C)C)(C3)NC(=O)[C@H]([C@@H](C)O)NC(=O)[C@H](Cc3ccccc3)NC(=O)[C@H](C)NC(=O)[C@H](C)NC(=O)[C@H](CN(CC(=O)O)CC(F)(F)F)NC(=O)[C@H](CC(=O)O)NC1=O)NC(=O)[C@H](CC(C)(C)C)NC(=O)[C@H](CC(=O)O)NC2=O` (stereo partly drawn) [I-1243, Ac-PL3-Asp-Npg-B5-Asp-TfeGA-Ala-Ala-Phe-Thr-PyrS2-2C1F-BztA-Leuo1], the IC50 was determined as 82 nM.

Turning to `CC(=O)N1CCC[C@]12CC=CCCCC1(CCCC=CCCCOC(=O)N3CC[C@@](C(=O)N[C@@H](Cc4ccccc4Cl)C(=O)N[C@@H](Cc4csc5ccccc45)C(=O)N[C@H](CO)CC(C)C)(C3)NC(=O)[C@H](CC(C)C)NC(=O)[C@H](Cc3ccccc3)NC(=O)[C@H](C)NC(=O)[C@H](C)NC(=O)[C@H](CC(=O)O)NC(=O)[C@H](CC(=O)O)NC1=O)NC(=O)[C@H](CC(C)(C)C)NC(=O)[C@H](CC(=O)O)NC2=O` (stereo partly drawn) [I-1251, Ac-PL3-Asp-Npg-B5-Asp-Asp-Ala-Ala-Phe-Leu-PyrS2-2C1F-BztA-Leuo1], the IC50 worked out at 1940 nM.

For `CCCCCCCC(=O)N1CCC[C@]12CC=CCCCC1(CCCC=CCCCCCC[C@@](C)(C(=O)N[C@@H](Cc3ccccc3Cl)C(=O)N[C@@H](Cc3csc4ccccc34)C(=O)N[C@@H](CCC(N)=O)C(N)=O)NC(=O)[C@H]([C@@H](C)O)NC(=O)[C@H](Cc3ccccc3)NC(=O)[C@H](C)NC(=O)[C@H](C)NC(=O)[C@H](CC(=O)O)NC(=O)[C@H](CC(=O)O)NC1=O)NC(=O)[C@H](CC(C)(C)C)NC(=O)[C@H](CC(=O)O)NC2=O` (stereo partly drawn) [I-1254, Oct-PL3-Asp-Npg-B5-Asp-Asp-Ala-Ala-Phe-Thr-S8-2C1F-BztA-Gln-NH2], the IC50 was 530 nM.

In the case of `CC(=O)N1CCC[C@]12CC=CCCCC1(CCCC=CCCOC(=O)N3CC[C@@](C(=O)N[C@@H](Cc4ccccc4Cl)C(=O)N[C@@H](Cc4csc5ccccc45)C(=O)N[C@@H](C(N)=O)[C@H](C)O)(C3)NC(=O)[C@H](CC(N)=O)NC(=O)[C@H](Cc3ccccc3)NC(=O)[C@H](C)NC(=O)[C@H](C)NC(=O)[C@H](CC(=O)O)NC(=O)[C@H](CC(=O)O)NC1=O)NC(=O)[C@H](CC(C)(C)C)NC(=O)[C@H](CC(=O)O)NC2=O` (stereo partly drawn) [I-1256, Ac-PL3-Asp-Npg-B5-Asp-Asp-Ala-Ala-Phe-Asn-PyrS1-2C1F-BztA-dThr-NH2], the IC50 was 1470 nM.

Consider `CC(=O)N1CCC[C@]12CC=CCCCC1(CCCC=CCCCOC(=O)N3CC[C@@](C(=O)N[C@@H](Cc4ccsc4)C(=O)N[C@@H](Cc4csc5ccccc45)C(=O)N[C@@H](CCC(N)=O)C(=O)NCc4ccccc4)(C3)NC(=O)[C@H](CC(N)=O)NC(=O)[C@H](Cc3ccccc3)NC(=O)[C@H](C)NC(=O)[C@H](C)NC(=O)[C@H](CC(=O)O)NC(=O)[C@H](CC(=O)O)NC1=O)NC(=O)[C@H](CC(C)(C)C)NC(=O)[C@H](CC(=O)O)NC2=O` (stereo partly drawn) [I-1257, Ac-PL3-Asp-Npg-B5-Asp-Asp-Ala-Ala-Phe-Asn-PyrS2-3Thi-BztA-Gln-NHBn], for which the IC50 is 11 nM.

For `C[C@@H]1NC(=O)[C@H](C)NC(=O)[C@H](CC(=O)O)NC(=O)[C@H](CC(=O)O)NC(=O)C2(CCCC=CCCCOC(=O)N3CC[C@@](C(=O)N[C@@H](Cc4ccccc4)C(=O)N[C@@H](Cc4csc5ccccc45)C(=O)N[C@@H](CO)C(N)=O)(C3)NC(=O)[C@H](CO)NC(=O)[C@H](Cc3ccccc3)NC1=O)CCCC=CC[C@]1(CCCN1C(=O)CCCN(C)C)C(=O)N[C@@H](CC(=O)O)C(=O)N[C@@H](CC(C)(C)C)C(=O)N2` (stereo partly drawn) [I-1354, NdiMeButC-PL3-Asp-Npg-B5-Asp-Asp-Ala-Ala-Phe-Ser-PyrS2-Phe-BztA-Ser-NH2], the IC50 was determined as 48 nM.
